In PMC6661831, “Molecular docking, synthesis, kinetics study, structure–activity relationship and ADMET analysis of morin analogous as Helicobacter pylori urease inhibitors” (BMC Chemistry, 2019):
Converted amounts (≈) assume the structure as drawn. Read-outs that look alike come from different tables or passages of the source.

How the values were obtained:
[1] = DPPH radical scavenging (antioxidant) assay; details: DPPH 300 µM, 30 min, mean SEM
Description: (§1) The novel synthesized Morin derivatives were examined for in- vitro urease inhibitory action by determining the ammonia concentration released during the reaction by indophenol technique as described by Weatherburn as well as for antioxidant nature by determining the ability of compounds to donate hydrogen and electrons using DPPH method.
DPPH method was adopted for measuring the antioxidant nature of the synthesized derivatives. According to this method synthesized compounds were allowed to react for 0.5 h. at 37 °C with stable free radical, 1, 1-diphenyl-2-picrylhydrazyl radical (DPPH). The DPPH was taken in a concentration of 300 µM. Decrease in value of absorption at […] was measured after the period of incubation using a microplate reader using ascorbic acid as a standard. Molecule which can donate a proton to DPPH and cause its reduction act as an antioxidant. Following reduction deep violet coloured DPPH solution changes to yellow depending upon the nature of antioxidant compound, which brings a measurable decrease in value of absorption at 517 nm. The proton or electron donating capacity of the derivative was estimated from the fading of deep purple colored methanolic solution of 1, 1-diphenylpicrylhydrazyl (DPPH). Incubation of mixture was done at room temperature for 30 min and measurements were done at 517 against blank. Calculation of percentage inhibition was done by following formula: I\% =AControl-ASample/AControl×100 where, Acontrol is control absorbance; Asample is test absorbance

[2] = target: T1, Jack bean urease (Canavalia ensiformis, UniProt P07374); assay: biochemical
T1 construct: purchased Sigma Aldrich
T1 sequence (P07374 whole entry, looked up): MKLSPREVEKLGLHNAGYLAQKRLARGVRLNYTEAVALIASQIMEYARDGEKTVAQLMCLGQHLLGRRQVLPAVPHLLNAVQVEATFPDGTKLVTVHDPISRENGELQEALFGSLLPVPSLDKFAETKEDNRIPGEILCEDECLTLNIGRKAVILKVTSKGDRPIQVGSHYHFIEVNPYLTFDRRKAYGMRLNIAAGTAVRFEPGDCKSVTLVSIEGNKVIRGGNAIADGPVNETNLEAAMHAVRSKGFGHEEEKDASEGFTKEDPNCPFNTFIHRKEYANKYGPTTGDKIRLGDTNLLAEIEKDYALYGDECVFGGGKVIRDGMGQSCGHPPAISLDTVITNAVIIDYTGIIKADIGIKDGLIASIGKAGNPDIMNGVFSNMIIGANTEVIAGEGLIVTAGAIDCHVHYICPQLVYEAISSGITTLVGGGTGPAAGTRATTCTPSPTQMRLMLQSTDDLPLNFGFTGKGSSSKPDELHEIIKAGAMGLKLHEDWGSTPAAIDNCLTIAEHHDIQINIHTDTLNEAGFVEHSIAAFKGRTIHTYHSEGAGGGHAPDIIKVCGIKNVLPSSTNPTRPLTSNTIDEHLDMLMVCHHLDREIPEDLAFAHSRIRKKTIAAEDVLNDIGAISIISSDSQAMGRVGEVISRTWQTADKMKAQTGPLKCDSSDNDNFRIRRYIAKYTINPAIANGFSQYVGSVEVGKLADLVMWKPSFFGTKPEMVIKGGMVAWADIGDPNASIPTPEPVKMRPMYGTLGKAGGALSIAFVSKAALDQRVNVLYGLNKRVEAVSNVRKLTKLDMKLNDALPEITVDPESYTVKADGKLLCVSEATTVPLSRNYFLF
Description: as §1
Urease enzyme inhibition investigation studies for all synthesized compounds were done by the method developed by Weatherburn named Indophenol against Jack Bean Urease. Briefly, incubation of solution of Jack bean protein 25 μL was done at temperature of 30 °C for a period of 15 min with 55 μL of buffers solution having 100 mM urea and 5 μL of test solution in 96-well plates. 45 μL phenol solution composing phenol 1% w/v and solution of sodium nitroprusside 0.005% w/v and alkali reagent 70 μL composed of sodium hydroxide 0.5% w/v and active sodium hypochloride solution 0.1% were mixed to every well. The measurement of increase in absorption at 625 nm was done after 50 min by help of a microplate reader (Molecular Device, USA). Readings were recorded in triplicate set in a final volume of 200 μL using thiourea as standard. Each assay was performed at pH 8.2 (0.01 M K2HPO4.3H2O, 0.01 M […] and 1 mM EDTA). Calculation of Inhibition in percentage of synthesized derivatives was done by the formula given as: I\% =AControl-ASample/AControl×100 where, Acontrol is control absorbance; Asample is test absorbance

[3] = system: H. pylori bacterium (ATCC 43504, DSM 4867); assay: MIC against Helicobacter pylori, micro broth dilution technique; type: cell-based; details: NCCLS method
Experimental: (§2) Compounds M2b and M2i which were found potent in urease inhibition and antioxidant activity as well as in terms of docking score were tested further against antibacterial efficiency against Helicobacter pylori ATCC 43504, DSM 4867 using AHA as a standard and DMSO as control. […] It could be concluded that compound M2i indicated excellent antibacterial action against H. Pylori, antioxidant and urease inhibitory activity.
(§3) Novel synthesized derivatives were investigated against H. pylori bacterium (ATCC 43504 DSM 4867, AHA as standard) for their antibacterial activity by using Well diffusion technique. The stock solution of compounds in DMSO (1000 μg/mL) were prepared. Cell suspension was prepared from culture grown on BHI broth. The cell suspensions of all the cultures were adjusted to 1–2 × 10^5cells/ml. Helicobacter pylori (100 µl) was inoculated by spread plate technique on agar plates (90 mm). Agar wells (5 mm) were made on H. pylori inoculated media and impregnated with 2500 µg of each sample and standard which were incubated @ 35 °C for 24–48 h with 5% CO2 and observed for zone of inhibition around the well. MIC was determined against Helicobacter pylori by micro broth dilution technique as per NCCLS method.

[4] = system: H. pylori bacterium (ATCC 43504, DSM 4867); assay: Anti-H. pylori activity, well diffusion technique; type: cell-based, Helicobacter pylori; details: 2500 µg per well, 24–48 h, 35 °C
Experimental: as §2, §3

[5] = read-out: IC50 urease inhibition, Jack bean urease, indophenol method, pH 8.2, mean SEM

O=c1c(O)c(-c2ccc(O)cc2O)oc2cc(O)cc(O)c12 [Morin, 3,5,7, 2′, 4′-pentahydroxyflavone]
IC50 [1]: 12.83 ± 0.028 µM | IC50 [2]: 21.77 ± 0.016 µM

Oc1ccc(-c2oc3cc(O)cc(O)c3/c(=N/C(=S)NNc3ccccc3)c2O)c(O)c1 [Compound M4, (4Z)-4-(3,5,7-trihydroxy-2-(2,4-dihydroxyphenyl)-4H-chromen-4-ylidene)-1-phenylthiosemicarbazide]
IC50 [1]: 8.099 ± 0.018 µM | IC50 [2]: 18.96 ± 0.011 µM

Oc1ccc(-c2oc3cc(O)cc(O)c3/c(=N/Nc3ccccc3)c2O)c(O)c1 [Compound M5, (4Z)-2-(2,4-dihydroxyphenyl)-4-(2-phenylhydrazinylidene)-4H-chromene-3,5,7-triol]
IC50 [1]: 8.78 ± 0.008 µM | IC50 [2]: 17.68 ± 0.08 µM

O=C1O[C@H]([C@@H](O)CO)C(O)=C1O [Ascorbic acid, reference compound]
IC50 [1]: 8.59 ± 0.004 µM

O=[N+]([O-])c1ccccc1NC(=S)N=c1c(O)c(-c2ccc(O)cc2O)oc2cc(O)cc(O)c12 [Compound M2c, N-((4E)-2-(2,4-dihydroxyphenyl)-3,5,7-trihydroxy-4H-chromen-4-ylidene)-N-(2-nitrophenyl)thiourea]
IC50 [1]: 10.18 ± 0.006 µM | IC50 [2, 5]: 19.5 ± 0.005 µM

Oc1ccc(-c2oc3cc(O)cc(O)c3c(=NC(=S)Nc3ccccc3)c2O)c(O)c1 [Compound M2a, N-((4E)-2-(2,4-dihydroxyphenyl)-3,5,7-trihydroxy-4H-chromen-4-ylidene)-N-phenylthiourea]
IC50 [1]: 7.795 ± 0.003 µM | IC50 [2]: 12.71 ± 0.027 µM

NC(N)=S [Thiourea, reference compound]
IC50 ([2]; Jack bean urease, indophenol method, pH 8.2, mean SEM, read-out: IC50 urease inhibition): 22.8 ± 0.011 µM

NC(=S)N/N=c1\c(O)c(-c2ccc(O)cc2O)oc2cc(O)cc(O)c12 [Compound M3, (1Z)-1-(3,5,7-trihydroxy-2-(2,4-dihydroxyphenyl)-4H-chromen-4-ylidene)thiosemicarbazide]
IC50 [1]: 11.9 ± 0.031 µM | IC50 [2]: 17.9 ± 0.007 µM

O=[N+]([O-])c1ccc(NC(=S)N=c2c(O)c(-c3ccc(O)cc3O)oc3cc(O)cc(O)c23)cc1 [Compound M2e, N-((4E)-2-(2,4-dihydroxyphenyl)-3,5,7-trihydroxy-4H-chromen-4-ylidene)-N-(4-nitrophenyl)thiourea]
IC50 [1]: 8.744 ± 0.008 µM | IC50 [2, 5]: 20.2 ± 0.01 µM

CC(=O)NO [AHA, acetohydroxamic acid]
MIC [3]: 1000 µg/mL (≈ 13.3 mM) | zone of inhibition [4]: 9.00 ± 0.50 mm

Oc1ccc(-c2oc3cc(O)cc(O)c3c(=NC(=S)Nc3ccccc3Cl)c2O)c(O)c1 [Compound M2b, N-(2-chlorophenyl)-N-((4E)-2-(2,4-dihydroxyphenyl)-3,5,7-trihydroxy-4H-chromen-4-ylidene)thiourea]
IC50 [1]: 7.37 ± 0.024 µM

O=[N+]([O-])c1cccc(NC(=S)N=c2c(O)c(-c3ccc(O)cc3O)oc3cc(O)cc(O)c23)c1 [Compound M2d, N-((4E)-2-(2,4-dihydroxyphenyl)-3,5,7-trihydroxy-4H-chromen-4-ylidene)-N-(3-nitrophenyl)thiourea]
IC50 [1]: 11.56 ± 0.013 µM | IC50 [2, 5]: 20.41 ± 0.031 µM
